The test system of data set [1] is HER2. Nature of the data set: HER2 activation in HGF-treated A431 cells (proximity assay). The format is cell-based. The conditions noted are these: A431 epidermoid carcinoma cells, FIG. 3. The method, then:
(§1) The slide was incubated for two hours at room temperature. • 4) After six washes with TBS-Tween, 80 μl of detection antibodies for the proximity assay diluted in TBS-Tween/2% BSA/1% FBS was added to the slides. The incubation was for 2 hours at room temperature. • a) As a non-limiting example, the detection antibodies can comprise the following: (i) an anti-c-Met monoclonal antibody that is directly conjugated to glucose oxidase (GO); and (ii) a monoclonal antibody recognizing phosphorylated c-Met that is directly conjugated to horseradish peroxidase (HRP). • b) Alternatively, the detection step can utilize a biotin-conjugate of the monoclonal antibody recognizing phosphorylated c-Met. In these instances, after six washes, an additional sequential step of incubation with streptavidin-HRP for 1 hour is included. • c) Alternatively, the detection step can utilize an oligonucleotide-mediated glucose oxidase (GO) conjugate of the anti-c-Met antibody. […]
(§2) The multiplexed protein microarray platform described herein utilizes the formation of a unique immuno-complex requiring the co-localization of two detector enzyme-conjugated-antibodies once target proteins are captured on the microarray surface. […] The detection and quantification of as few as ˜2-3×10^4 phosphorylation events is routinely achieved by this method, bringing its detection to a “single” cell level. […]

Data set [2] deals with T1, c-Met (Homo sapiens, UniProt P08581). The data set can be described thus: c-Met activation in HGF-treated HCC827 cells (proximity assay). The format is cell-based. The conditions noted are these: HCC827 lung cancer cells, FIG. 4. An excerpt: (§3) The multiplexed protein microarray platform described herein utilizes the formation of a unique immuno-complex requiring the co-localization of two detector enzyme-conjugated-antibodies once target proteins are captured on the microarray surface. The channeling events between two detector enzymes (glucose oxidase (GO) and horseradish peroxidase (HRP)) in proximity enables the profiling of a receptor tyrosine kinase (RTK) such as c-Met with extreme sensitivity. […] In particular, the multiplexed proximity assay is based on (1) a multiplexed protein microarray platform combined with (2) a triple-antibody-enzyme channeling signal amplification process. The unique and novel design is provided by the triple-antibody enzyme approach that confers ultra-high sensitivity while preserving specificity: • (1) The selected target is captured by target-specific antibodies printed in serial dilutions on a microarray surface. […] The detection and quantification of as few as ˜2-3×10^4 phosphorylation events is routinely achieved by this method, bringing its detection to a “single” cell level. In certain instances, this collaborative immunoassay configuration can be further applied to investigate protein interactions and activations.
T1 sequence (P08581 25-1390): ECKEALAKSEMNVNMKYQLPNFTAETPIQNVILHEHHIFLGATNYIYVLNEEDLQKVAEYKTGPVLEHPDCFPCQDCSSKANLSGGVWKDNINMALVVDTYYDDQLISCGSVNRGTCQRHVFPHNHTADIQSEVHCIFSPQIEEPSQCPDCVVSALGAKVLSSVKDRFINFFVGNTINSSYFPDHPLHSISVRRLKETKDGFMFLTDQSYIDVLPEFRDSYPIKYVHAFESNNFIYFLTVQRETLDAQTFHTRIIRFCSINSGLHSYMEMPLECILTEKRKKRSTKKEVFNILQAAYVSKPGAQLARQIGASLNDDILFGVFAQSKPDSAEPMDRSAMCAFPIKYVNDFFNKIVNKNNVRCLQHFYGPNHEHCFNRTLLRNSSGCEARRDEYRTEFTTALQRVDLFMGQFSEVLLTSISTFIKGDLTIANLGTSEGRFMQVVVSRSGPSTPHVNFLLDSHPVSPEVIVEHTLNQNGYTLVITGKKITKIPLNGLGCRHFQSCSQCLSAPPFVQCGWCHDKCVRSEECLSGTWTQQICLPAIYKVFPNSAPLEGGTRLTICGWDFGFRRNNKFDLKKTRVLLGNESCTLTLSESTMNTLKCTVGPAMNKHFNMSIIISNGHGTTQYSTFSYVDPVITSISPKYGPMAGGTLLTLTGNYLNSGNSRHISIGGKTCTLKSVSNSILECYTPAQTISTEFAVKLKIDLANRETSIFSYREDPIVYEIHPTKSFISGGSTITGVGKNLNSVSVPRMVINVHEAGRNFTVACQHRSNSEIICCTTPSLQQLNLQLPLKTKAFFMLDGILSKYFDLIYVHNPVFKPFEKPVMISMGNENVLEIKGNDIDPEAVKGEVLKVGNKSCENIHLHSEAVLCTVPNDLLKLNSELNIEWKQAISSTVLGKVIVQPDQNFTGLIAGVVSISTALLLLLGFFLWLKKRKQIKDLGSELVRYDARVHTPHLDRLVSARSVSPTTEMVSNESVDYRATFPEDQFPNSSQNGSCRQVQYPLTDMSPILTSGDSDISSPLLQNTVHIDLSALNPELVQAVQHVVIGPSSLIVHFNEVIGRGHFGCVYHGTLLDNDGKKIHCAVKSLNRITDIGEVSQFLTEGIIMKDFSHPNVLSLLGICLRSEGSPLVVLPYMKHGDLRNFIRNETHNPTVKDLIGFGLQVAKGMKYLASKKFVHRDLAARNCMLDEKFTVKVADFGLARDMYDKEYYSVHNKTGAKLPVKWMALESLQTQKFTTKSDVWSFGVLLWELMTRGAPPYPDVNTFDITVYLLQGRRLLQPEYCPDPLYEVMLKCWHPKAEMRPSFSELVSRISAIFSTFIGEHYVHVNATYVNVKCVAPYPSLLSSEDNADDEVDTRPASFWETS

Data set [3] concerns the target T1, c-Met. Nature of the data set: c-Met activation in HGF-treated A431 cells (proximity assay). The format is cell-based. The conditions noted are these: A431 epidermoid carcinoma cells, FIG. 3. Here is the method:
as §1, §2

Data set [4] relates to HER2. Nature of the data set: HER2 activation in HGF-treated HCC827 cells (proximity assay). The conditions noted are these: HCC827 lung cancer cells, FIG. 4. It is filed as cell-based.
Text: as §3

A further data set deals with human xenograft models. The conditions noted are these: dosed orally; cited from earlier work.
For data set [5] the following is noted: in vivo; cited from earlier work.
The subject of another data set is CYP450. To be noted: cited from earlier work.
For data set [6], the target named is T1, c-Met. The conditions noted are these: cited from earlier work.
The conditions of data set [7]: early Phase I; cited from earlier work.

Regarding “HGF: c-Met ligand, hepatocyte growth factor, a multidomain glycoprotein”, the HER2 phosphorylation entry in the data set on HER2 [1] was “slightly decreased”; in the data set with HER2 [4], “not affected”. The “increase of c-Met phosphorylation” value in the data set with c-Met [2] was “about 4 fold”. Further, the c-Met phosphorylation entry in the data set with c-Met [3] is “stimulated”.

Take `Cn1cc(-c2ccc3nnc(Sc4ccc5ncccc5c4)n3n2)cn1` [SGX523]: in the data set with human xenograft models, the antitumor activity result is “potent antitumor activity” and the toxicity entry is “no overt toxicity”.

With `COc1cc2c(Oc3ccc(NC(=O)C4(C(=O)Nc5ccc(F)cc5)CC4)cc3F)ccnc2cc1OCCCN1CCOCC1` [XL880], the oral bioavailability entry in data set [5] is “good”. In the data set with CYP450, the “CYP450 substrate / inhibitor / inducer” value is reported as “substrate, but not an inhibitor or inducer”.

As for “MetMAb: humanized, monovalent, antagonistic anti-c-Met antibody derived from the agonistic monoclonal antibody 5D5”, the “binding to c-Met” value with c-Met [6] was “high affinity”.

Take `CN(C[C@@H]1COCCO1)S(=O)(=O)Nc1ccc2ccc3ncc(-c4cnn(C)c4)cc3c(=O)c2c1` [MK-2461]: the tolerability entry in [7] is “well tolerated”.

Values taken from patent US10473640B2, “Drug selection for gastric cancer therapy using antibody-based arrays” (Société des Produits Nestlé S.A., priority 2006, dated 2019).
